Here are results for eight compounds from patent US3993771A (priority 1974, dated 1976).

In data set [1] the test system is Pyricularia oryzae. In kind it is in vivo.
Data set [2] concerns rice plants (var.: Kinki No. 33).
Data set [3] shares this test system. Conditions: preventive test.
For data set [4], the system named is Pyricularia oryzae. In words: microbe, parasite or virus in culture. In kind it is cell-based. Conditions: for Diameter of mycelium / Diameter of mycelium (symbol): 27° C., 2 weeks; for Diameter of mycelium: untreated 63.5 m/m; for MIC: Pyricularia oryzae, 336 h, read-out: MIC (minimum inhibitory concentration on mycelial growth).
Data set [5] relates to Pyricularia oryzae. The format is in vivo. Conditions: preventive.
The mark [6] stands for this setting: curative, concentration of active ingredient 200 ppm.
Where [7] appears, read: concentration of active ingredient 100 ppm.
The mark [8] stands for this setting: curative, concentration of active ingredient 500 ppm.
Where [9] appears, read: concentration of active ingredient 500 ppm.

≈ marks a conversion by molar mass, not a printed value. Like-named read-outs stand apart in the source and are kept apart here. A value given as a limit tells only on which side of the number the result lay.

In the data set on Pyricularia oryzae [1] (in vivo), `CCOP(=O)(Sc1ccccc1)Sc1ccccc1` [Commercial fungicide C, O-ethyl-S,S-diphenyl-phosphorodithiolate, reference compound] showed a Disease control of 92% and a Disease severity of 7.5%. Besides, in data set [2] (in vivo), the Phytotoxicity result is “no”.
For `Cc1ccccc1C=C1CCOC1=O` [Compound 1], the Disease control in the data set with Pyricularia oryzae [1] (setting [6]) is 99%; in the data set with Pyricularia oryzae [5] (setting [7]), 100%. Further, the Disease severity in the data set on Pyricularia oryzae [1] (setting [6]) worked out at 1.3%; in the data set with Pyricularia oryzae [5] (setting [7]), 0%. The Phytotoxicity entry in data set [3] (100 ppm) is recorded as “no”; in data set [2] (curative test, 200 ppm) it was “no”. The Diameter of mycelium in the data set with Pyricularia oryzae [4] (2 ppm), with Pyricularia oryzae [4] (10 ppm), with Pyricularia oryzae [4] (50 ppm) and in the data set with Pyricularia oryzae [4] (250 ppm) was 0 m/m in each case. For the same compound, the MIC in the data set on Pyricularia oryzae [4] was below 2 µg/mL.
In the case of `CC1CC(=Cc2ccccc2C(C)C)C(=O)O1` (stereo not drawn) [Compound 13], the Disease control turned out to be 99% with Pyricularia oryzae [1] (setting [6]) and 100% in the data set with Pyricularia oryzae [5] (setting [7]). For the same compound, the Disease severity with Pyricularia oryzae [1] (setting [6]) is 1.3%; with Pyricularia oryzae [5] (setting [7]), 0%. For the same compound, the Phytotoxicity result in data set [3] (100 ppm) is “no”. The “Diameter of mycelium (symbol)” value in the data set with Pyricularia oryzae [4] (2 ppm) is “±”. In addition, the Diameter of mycelium in the data set with Pyricularia oryzae [4] (10 ppm), in the data set with Pyricularia oryzae [4] (50 ppm) and in the data set on Pyricularia oryzae [4] (250 ppm) was 0 m/m in each case. Moreover, the MIC in the data set on Pyricularia oryzae [4] is around 2 µg/mL (≈ 8.68 µM).
For the compound `CCc1ccccc1C=C1CC(C)OC1=O` (stereo not drawn) [Compound 14], the Disease control in the data set on Pyricularia oryzae [1] (setting [6]) and with Pyricularia oryzae [5] (setting [7]) was 100% in each case. The Disease severity with Pyricularia oryzae [1] (setting [6]) and in the data set with Pyricularia oryzae [5] (setting [7]) was 0% in each case. In addition, in data set [3] (100 ppm), the Phytotoxicity entry is reported as “no”. In the data set on Pyricularia oryzae [4] (2 ppm), the “Diameter of mycelium (symbol)” value was “±”. The Diameter of mycelium in the data set on Pyricularia oryzae [4] (10 ppm), in the data set on Pyricularia oryzae [4] (50 ppm) and with Pyricularia oryzae [4] (250 ppm) was 0 m/m each time. Also, the MIC in the data set with Pyricularia oryzae [4] is around 2 µg/mL (≈ 9.25 µM).
Take `O=C1OCCC1=Cc1ccccc1` [Control (ii), reference compound]: the Disease control in the data set on Pyricularia oryzae [1] (setting [8]) is reported as 0%; with Pyricularia oryzae [5] (setting [9]), 7%. In addition, the Disease severity in the data set with Pyricularia oryzae [1] (setting [8]) is 97.5%; in the data set on Pyricularia oryzae [5] (setting [9]), 93.8%. The Phytotoxicity entry in data set [3] (500 ppm) is “no”. Also, the Diameter of mycelium in the data set on Pyricularia oryzae [4] (2 ppm) amounted to 68.5 m/m; in the data set with Pyricularia oryzae [4] (10 ppm), 49.0 m/m; in the data set with Pyricularia oryzae [4] (50 ppm), 35.5 m/m. The “Diameter of mycelium (symbol)” value in the data set with Pyricularia oryzae [4] (250 ppm) is on record as “±”. Besides, in the data set with Pyricularia oryzae [4], the MIC was around 250 µg/mL (≈ 1440 µM).
Take `O=C1OCCC1=Cc1ccccc1O` [Control (iii), reference compound]: the Disease control amounted to 0% in the data set with Pyricularia oryzae [1] (setting [8]) and 10% in the data set on Pyricularia oryzae [5] (setting [9]). Also, the Disease severity is listed as 97.5% in the data set with Pyricularia oryzae [1] (setting [8]) and 90.0% in the data set with Pyricularia oryzae [5] (setting [9]). For the same compound, the Phytotoxicity result in data set [3] (500 ppm) was “no”. In addition, the Diameter of mycelium with Pyricularia oryzae [4] (2 ppm) turned out to be 65.0 m/m; in the data set on Pyricularia oryzae [4] (10 ppm), 55.0 m/m; in the data set on Pyricularia oryzae [4] (50 ppm) it was 40.0 m/m; in the data set on Pyricularia oryzae [4] (250 ppm) it was 11.0 m/m. Besides, in the data set on Pyricularia oryzae [4], the MIC is above 250 µg/mL.
For the compound `COc1ccccc1C=C1CCOC1=O` [Control (iv), reference compound], the Disease control in the data set on Pyricularia oryzae [1] (setting [8]) is 0%; in the data set on Pyricularia oryzae [5] (setting [9]), 2%. Besides, the Disease severity is 100.0% with Pyricularia oryzae [1] (setting [8]) and 97.5% in the data set on Pyricularia oryzae [5] (setting [9]). Also, the Phytotoxicity result in data set [3] (500 ppm) was “no”; in data set [2] (curative test, 500 ppm) it was “no”. For the same compound, the Diameter of mycelium with Pyricularia oryzae [4] (2 ppm) came to 63.0 m/m; with Pyricularia oryzae [4] (10 ppm), 48.5 m/m; in the data set on Pyricularia oryzae [4] (50 ppm), 31.5 m/m. Also, the “Diameter of mycelium (symbol)” value with Pyricularia oryzae [4] (250 ppm) is recorded as “±”. In addition, in the data set on Pyricularia oryzae [4], the MIC was around 250 µg/mL (≈ 1220 µM).
`O=C1OCCC1=Cc1ccc(Cl)cc1` [Control (vi), reference compound]: the Disease control in the data set on Pyricularia oryzae [1] (setting [8]) and in the data set on Pyricularia oryzae [5] (setting [9]) was 0% each time. Also, the Disease severity with Pyricularia oryzae [1] (setting [8]) and in the data set on Pyricularia oryzae [5] (setting [9]) was 100.0% in each case. Also, in data set [3] (500 ppm), the Phytotoxicity entry is given as “no”. The Diameter of mycelium with Pyricularia oryzae [4] (2 ppm) came out at 66.0 m/m; with Pyricularia oryzae [4] (10 ppm), 51.5 m/m; in the data set on Pyricularia oryzae [4] (50 ppm) it was 34.5 m/m; in the data set on Pyricularia oryzae [4] (250 ppm), 3.0 m/m. In addition, in the data set on Pyricularia oryzae [4], the MIC amounted to 250 µg/mL (≈ 1200 µM).
